Assay results from patent US4814340A, “1,4-diaryl alkane derivatives having insecticidal and acaricidal activity” (priority 1982, dated 1989).

Assays:
[1] = system: green rice leafhopper (female adults); test: Test 2 (Effect on Green Rice Leafhopper); type: in vivo; settings: 48 hours, marked * in Table 3
yearling carps = test: Test 5 (Fish Toxicity); type: in vivo, carp
Method: (§1) Compounds (a) through (g) described below were tested as comparative compounds in the same manner as the compounds of the present invention. All the tests were doubly carried out. Namely, each result was expressed by an average value of two data.
A water tank having a width of 60 cm, a length of 30 cm and a height of 40 cm was filled with water, and 10 yearling carps having a body length of about 5 cm were set free in the tank and adapted to the environment in the tank. An acetone solution of a test compound was applied into water so as to become a concentration of 1 or 0.1 ppm in water by adding said acetone solution at a rate of one part by volume per 100 parts by volume of water. 48 hours after, the number of killed and living carps was counted and the effect of a test compound on carps was examined.

plants of Solanacede = test: phytotoxicity to plants of Solanacede
[2] = system: common cutworm (third-instar larvae); test: Test 1 (Effect on Common Cutworm); type: in vivo; settings: Spodoptera litura, 48 hours, third-instar larvae, read-out: Mortality (%)
Method: as §1
The emulsifiable concentrate of the test compound, prepared according to the method described in Formulation Example 1, was diluted with water to a specified concentration. Sweet potato leaves were sufficiently immersed in the dilution. The sweet potato leaves were dried and placed in a plastic cup having a diameter of 10 cm, and 10 third-instar larvae of common cutworm were set free in each cup. 48 hours after, the numbers of killed and living larvae were counted and the mortality was calculated.

[3] = system: green rice leafhopper (female adults); test: Test 2 (Effect on Green Rice Leafhopper); type: in vivo; settings: Nephotettix cincticeps, 48 hours, female adults, read-out: Mortality (%)
Method: as §1
Four or five seedlings of paddy rice with three leaves were bundled, and thereon the same dilution of the emulsifiable concentrate as used in Test 1 was sprayed in an amount of 3 ml. The bundle was dried and covered with a metal net cylinder, and 10 female adults of green rice leafhopper were set free in the cylinder. 48 hours after, the number of killed adults was counted.

[4] = system: German cockroach (female adults); test: Test 3 (Effect on German Cockroach); type: in vivo, Blatella germanica (German cockroach); settings: Blattella germanica, 48 hours, female adults, read-out: Mortality (%); for mortality at 1 mg/m2: 1 mg/m^2; for mortality at 5 mg/m2: 5 mg/m^2
Method: as §1
One ml of an acetone solution of a test compound of a specified concentration was poured in a high Petri dish having a diameter of 9 cm and a height of 9 cm. The Petri dish was allowed to stand, and thereby the acetone was evaporated. The upper part of the inner wall of the Petri dish was treated with butter to prevent the adults of German cockroach from escaping from the Petri dish. 10 female adults of German cockroach were set free in each Petri dish. 48 hours after, the number of killed adults was counted.

[5] = system: two-spotted spider mite (adults); test: Test 4 (Effect on Two-Spotted Spider Mite); type: in vivo; settings: Tetranychus urticae; 200 ppm; 24 hours; adults; read-out: Mortality (%)
Method: as §1
A kidney bean leaf disc (20 mm in diameter) perforated with a cork borer was placed on water-impregnated absorbent cotton, and thereon 20 adults of two-spotted spider mite were set free, and the resulting set was allowed to stand around the clock. The same dilution of the emulsifiable concentrate of a test compound having a concentration of 200 ppm as used in Test 1 and Test 2, was applied by an applicator having a diameter of 20 cm and a height of 60 cm in an amount of 3 ml. 24 hours after, the number of killed adults was counted.

**Q.** For “1-(3-Benzoylphenyl)-4-(4-chlorophenyl)-4-methylpentane [Compound 11]”, which “Rate of Number of Adults KnockedDown” value ([1]; 20 ppm) is on record?
**A.** The value was 60%.

**Q.** What about the “Rate of Number of Adults KnockedDown” value ([1]; 100 ppm) of the same compound?
**A.** Its value is 90%.

**Q.** With CC(C)C(C(=O)OC(C#N)c1cccc(Oc2ccccc2)c1)c1ccc(Cl)cc1 (stereo not shown) [(g), Fenvalerate, reference compound] as the compound, how does the “Mortality(%) 48 Hours After” value (yearling carps; 0.1 ppm in water) read?
**A.** The value was 100%.

**Q.** What about the “Mortality(%) 48 Hours After” value (yearling carps; 1 ppm in water) of the same compound?
**A.** The value was 100%.

**Q.** And the “phytotoxicity to plants of Solanacede” value (plants of Solanacede)?
**A.** The value was “observed”.

**Q.** With CCOc1ccc(C(C)(C)CCCN2C(=O)C3=C(CCCC3)C2=O)cc1 [Compound 12, 1-(3,4,5,6-Tetrahydrophthalimido)-4-(4-ethoxyphenyl)-4-methylpentane] as the compound, how does the “Rate of Number of Adults KnockedDown” value ([1]; 20 ppm) read?
**A.** The value was 40%.

**Q.** What about the “Rate of Number of Adults KnockedDown” value ([1]; 100 ppm) of the same compound?
**A.** Its value is 80%.

**Q.** Which results are given for CCOc1ccc(C(C)(C)CCCc2cccc(Oc3ccccc3)c2)cc1 [Compound 24]?
**A.** mortality at 20 ppm [2]: 100%; mortality at 100 ppm [2]: 100%; mortality at 20 ppm [3]: 100%; mortality at 100 ppm [3]: 100%; Mortality(%) 48 Hours After (yearling carps; 0.1 ppm in water): 0%; Mortality(%) 48 Hours After (yearling carps; 1 ppm in water): 0%; mortality at 1 mg/m2 [4]: 100%; mortality at 5 mg/m2 [4]: 100%; mortality at 200 ppm [5]: 95%

**Q.** What does the source list for CCOc1ccc(C(C)(C)CCCc2ccc(F)c(Oc3ccccc3)c2)cc1Cl [Compound 57]?
**A.** mortality at 20 ppm [2]: 100%; mortality at 100 ppm [2]: 100%; mortality at 20 ppm [3]: 100%; mortality at 100 ppm [3]: 100%; Mortality(%) 48 Hours After (yearling carps; 0.1 ppm in water): 0%; Mortality(%) 48 Hours After (yearling carps; 1 ppm in water): 0%; mortality at 1 mg/m2 [4]: 100%; mortality at 5 mg/m2 [4]: 100%; mortality at 200 ppm [5]: 91%
